{"source": "paper PMC3508466", "about": "(Chemistry & biology, 2012)", "key": {"[1]": {"target": "ClC-ec1 R28A/K216A mutant (Escherichia coli, UniProt P37019, K216A/R28A)", "sequence (P37019 whole entry R28A/K216A)": "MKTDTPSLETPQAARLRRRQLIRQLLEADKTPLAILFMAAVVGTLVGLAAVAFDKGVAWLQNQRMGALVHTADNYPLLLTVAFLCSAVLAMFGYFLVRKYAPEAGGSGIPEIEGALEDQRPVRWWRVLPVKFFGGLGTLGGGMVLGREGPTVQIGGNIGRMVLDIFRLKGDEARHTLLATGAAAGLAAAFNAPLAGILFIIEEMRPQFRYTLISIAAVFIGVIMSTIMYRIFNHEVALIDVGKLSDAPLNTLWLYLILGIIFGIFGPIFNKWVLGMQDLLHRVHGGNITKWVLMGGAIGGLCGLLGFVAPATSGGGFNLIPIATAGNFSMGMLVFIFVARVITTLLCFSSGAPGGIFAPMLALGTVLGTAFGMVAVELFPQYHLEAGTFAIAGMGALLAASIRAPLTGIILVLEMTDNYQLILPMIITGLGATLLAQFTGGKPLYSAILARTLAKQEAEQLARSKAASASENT", "conditions": "E. coli polar lipids"}, "human ClC-1": {"target": "human ClC-1 (Homo sapiens, UniProt P35523)", "sequence (P35523 whole entry)": "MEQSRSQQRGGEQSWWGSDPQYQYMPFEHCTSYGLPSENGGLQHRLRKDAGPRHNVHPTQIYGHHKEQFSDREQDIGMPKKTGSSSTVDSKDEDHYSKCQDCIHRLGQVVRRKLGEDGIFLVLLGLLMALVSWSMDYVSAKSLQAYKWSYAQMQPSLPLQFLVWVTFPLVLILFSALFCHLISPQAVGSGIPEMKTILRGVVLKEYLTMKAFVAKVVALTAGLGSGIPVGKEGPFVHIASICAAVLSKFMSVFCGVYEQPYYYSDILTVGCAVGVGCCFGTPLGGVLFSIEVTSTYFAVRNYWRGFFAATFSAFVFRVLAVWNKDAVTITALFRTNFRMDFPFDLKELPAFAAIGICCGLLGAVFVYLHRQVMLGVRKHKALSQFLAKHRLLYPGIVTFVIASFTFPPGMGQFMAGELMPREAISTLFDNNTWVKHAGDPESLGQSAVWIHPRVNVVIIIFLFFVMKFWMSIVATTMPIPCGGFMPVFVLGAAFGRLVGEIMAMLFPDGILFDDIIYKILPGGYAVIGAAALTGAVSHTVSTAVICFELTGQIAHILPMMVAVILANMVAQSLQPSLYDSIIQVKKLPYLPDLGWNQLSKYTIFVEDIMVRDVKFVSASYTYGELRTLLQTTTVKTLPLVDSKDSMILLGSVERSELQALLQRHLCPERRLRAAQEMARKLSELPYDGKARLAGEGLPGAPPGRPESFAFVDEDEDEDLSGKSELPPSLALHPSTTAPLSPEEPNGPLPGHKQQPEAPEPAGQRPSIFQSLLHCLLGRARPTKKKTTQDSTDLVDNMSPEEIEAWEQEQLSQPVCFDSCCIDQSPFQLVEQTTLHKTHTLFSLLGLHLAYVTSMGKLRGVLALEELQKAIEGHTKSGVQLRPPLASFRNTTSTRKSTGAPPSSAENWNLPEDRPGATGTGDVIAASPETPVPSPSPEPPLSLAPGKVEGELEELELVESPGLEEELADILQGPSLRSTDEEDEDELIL", "test": "Inside-out patches excised from Xenopus oocytes expressing human ClC-1", "format": "cell-based", "conditions": "30 μM"}, "ClC-ec1 [2]": {"target": "T1, ClC-ec1 (Escherichia coli, UniProt P37019)", "T1 sequence (P37019 whole entry)": "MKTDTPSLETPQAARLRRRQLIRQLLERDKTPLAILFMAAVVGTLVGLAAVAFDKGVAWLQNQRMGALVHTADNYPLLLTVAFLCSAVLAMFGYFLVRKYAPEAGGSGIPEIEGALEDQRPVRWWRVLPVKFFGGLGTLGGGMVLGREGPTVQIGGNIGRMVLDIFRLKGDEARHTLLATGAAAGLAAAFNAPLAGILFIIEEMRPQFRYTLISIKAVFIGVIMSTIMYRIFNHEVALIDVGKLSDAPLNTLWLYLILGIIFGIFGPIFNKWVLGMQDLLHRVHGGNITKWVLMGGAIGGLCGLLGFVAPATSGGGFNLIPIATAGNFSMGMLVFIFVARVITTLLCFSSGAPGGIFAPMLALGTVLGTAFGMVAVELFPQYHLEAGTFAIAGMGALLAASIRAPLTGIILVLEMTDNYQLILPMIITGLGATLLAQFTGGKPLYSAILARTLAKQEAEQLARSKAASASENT", "test": "Cl− efflux assay, ClC-ec1 reconstituted into liposomes", "format": "biochemical, E. coli", "conditions": "for inhibition of ClC-ec1 by parent compounds: concentrations up to 1 mM"}, "ClC-ec1 [3]": {"target": "T1, ClC-ec1", "conditions": "for Hill coefficient n / Imax (maximal inhibition): cis chamber"}, "[4]": {"system": "ClC-ec1 intracellular vestibule triple mutant", "format": "biochemical, E. coli"}, "[5]": {"system": "ClC-ec1 R23 and K30 mutant", "test": "Cl− efflux assay, ClC-ec1 with R23 and K30 mutated", "format": "biochemical, E. coli"}, "ClC-ec1 [6]": {"target": "T1, ClC-ec1"}, "[7]": {"system": "ClC-ec1 R160, R167 and R174 mutant", "test": "Cl− efflux assay, ClC-ec1 with R160, R167 and R174 mutated", "format": "biochemical", "conditions": "E. coli polar lipids"}, "[8]": {"system": "ClC-ec1 R17, R18, and R19 mutant", "test": "Cl− efflux assay, ClC-ec1 with R17, R18 and R19 mutated", "format": "biochemical, E. coli"}, "ClC-ec1 K169A mutant": {"target": "ClC-ec1 K169A mutant (Escherichia coli, UniProt P37019, K169A)", "sequence (P37019 whole entry K169A)": "as the sequence (P37019 whole entry R28A/K216A) above, with A28R, K169A, A216K counted along it", "conditions": "E. coli polar lipids"}}, "note": "Values joined by “and” are separate entries in the source; they are usually repeats but may differ in a detail not shown here. Equal entries are not always repeated. “Also recorded” adds a separate entry of the source. Where two headings read alike, the source gives them in different places.", "data": [{"smiles": "CCCCCCCC(=O)Nc1ccc(/C=C\\c2ccc(NC(=O)CCCCCCC)cc2S(=O)(=O)O)c(S(=O)(=O)O)c1", "note": "[cis-OADS]", "values": [{"measurement": "potency on R28A/K216A relative to trans-OADS", "setting": "[1]", "value": "just as potently as trans-OADS"}, {"measurement": "ClC-1 inhibition, cis versus trans isomer", "setting": "human ClC-1", "value": "equally inhibited by both the cis and trans-OADS isomers"}]}, {"smiles": "CCCCCCCC(=O)O", "note": "[octanoic acid]", "values": [{"measurement": "inhibition of ClC-ec1 by known CLC channel inhibitors (lead panel)", "setting": "ClC-ec1 [2]", "value": "None of these compounds inhibited ClC-ec1"}, {"measurement": "inhibition of ClC-ec1 by parent compounds", "setting": "ClC-ec1 [2]", "value": "neither parent compound detectably inhibited ClC-ec1"}]}, {"smiles": "O=C(O)c1cccnc1Nc1cccc(C(F)(F)F)c1", "note": "[niflumic acid]", "values": [{"measurement": "inhibition of ClC-ec1 by known CLC channel inhibitors (lead panel)", "setting": "ClC-ec1 [2]", "value": "None of these compounds inhibited ClC-ec1"}]}, {"smiles": "O=C(O)C(Cc1ccc(Cl)cc1)Oc1ccc(Cl)cc1", "note": "(stereo not drawn) [2-(p-chlorophenoxy)-3-(4-chlorophenyl)propionic acid]", "values": [{"measurement": "inhibition of ClC-ec1 by known CLC channel inhibitors (lead panel)", "setting": "ClC-ec1 [2]", "value": "None of these compounds inhibited ClC-ec1"}]}, {"smiles": "CCCCCCCC(=O)Nc1ccc(C=Cc2ccc(NC(=O)CCCCCCC)cc2S(=O)(=O)O)c(S(=O)(=O)O)c1", "note": "[OADS, 4,4′-octanamidostilbene-2,2′-disulfonate]", "values": [{"measurement": "effect of OADS applied to the opposite chamber from DIDS", "setting": "ClC-ec1 [3]", "value": "significant additional inhibition"}, {"measurement": "time to complete reversal of inhibition after perfusion with OADS-free solution", "setting": "ClC-ec1 [3]; 3.3 μM OADS in trans chamber, 4 min is minimum for full perfusion", "value": "4 to 10", "unit": "min"}, {"measurement": "effect of OADS added after DIDS to the same (cis) chamber", "setting": "ClC-ec1 [3]; 1 mM DIDS then 15 μM OADS", "value": "no additional inhibition; also recorded: has no effect"}, {"measurement": "Hill coefficient n", "setting": "ClC-ec1 [3]; +100 mV", "value": 3.9}, {"measurement": "Imax (maximal inhibition)", "setting": "ClC-ec1 [3]; +100 mV", "value": 34, "unit": "%"}, {"measurement": "maximal inhibition", "setting": "ClC-ec1 [3]; OADS added to cis chamber, voltage not specified", "value": "~ 40%"}, {"measurement": "Hill coefficient n", "setting": "ClC-ec1 [3]; −100 mV", "value": 6.1}, {"measurement": "Imax (maximal inhibition)", "setting": "ClC-ec1 [3]; −100 mV", "value": 40, "unit": "%"}, {"measurement": "effect of mutation on inhibition by OADS", "setting": "[4]", "value": "has no effect on inhibition by OADS"}, {"measurement": "effect of mutation on OADS inhibition", "setting": "[5]", "value": "had no effect on OADS inhibition"}, {"measurement": "inhibition of ClC-1", "setting": "human ClC-1", "value": 20, "unit": "%"}, {"measurement": "effect on Cl− binding to ClC-ec1", "setting": "ClC-ec1 [6]", "value": "no significant effect on Cl^− binding to ClC-ec1"}, {"measurement": "inhibition of ClC-ec1", "setting": "ClC-ec1 [2]; 30 μM, PE/PG liposomes", "value": 84, "unit": "%"}, {"measurement": "Ki", "setting": "ClC-ec1 [2]; PE/CLN liposomes", "value": 32, "unit": "µM"}, {"measurement": "Hill coefficient n", "setting": "ClC-ec1 [2]; PE/PG liposomes", "value": 1.9}, {"measurement": "Ki", "setting": "ClC-ec1 [2]; PE/PG liposomes", "value": 7.3, "unit": "µM"}, {"measurement": "Hill coefficient n", "setting": "ClC-ec1 [2]; liposomes from E. coli polar lipids", "value": 1.9}, {"measurement": "Ki", "setting": "ClC-ec1 [2]; read-out: Ki (apparent affinity, concentration for half-maximal inhibition), liposomes from E. coli polar lipids, pH 4.0", "value": "~30 µM and 29 µM"}, {"measurement": "increase in potency compared to either parent compound", "setting": "ClC-ec1 [2]; versus octanoic acid and DADS", "value": "over 100 fold"}, {"measurement": "influence of mutation on OADS inhibition", "setting": "[7]", "value": "had no influence"}, {"measurement": "effect of mutation on OADS inhibition", "setting": "[8]", "value": "had no effect on OADS inhibition"}, {"measurement": "Ki", "setting": "ClC-ec1 K169A mutant", "value": 68, "unit": "µM"}, {"measurement": "change in sensitivity to OADS versus wild type", "setting": "ClC-ec1 K169A mutant", "value": "two-fold decrease in sensitivity"}]}, {"smiles": "Nc1ccc(C=Cc2ccc(N)cc2S(=O)(=O)O)c(S(=O)(=O)O)c1", "note": "[DADS, 4,4′-diaminostilbene-2,2′-disulfonate]", "values": [{"measurement": "inhibition of ClC-ec1 by known CLC channel inhibitors (lead panel)", "setting": "ClC-ec1 [2]", "value": "None of these compounds inhibited ClC-ec1"}, {"measurement": "inhibition of ClC-ec1 by parent compounds", "setting": "ClC-ec1 [2]", "value": "neither parent compound detectably inhibited ClC-ec1"}]}, {"smiles": "O=C(O)c1cc([N+](=O)[O-])ccc1NCCCc1ccccc1", "note": "[NPPB, 5-nitro-2-(3-phenylpropylamino)benzoic acid]", "values": [{"measurement": "inhibition of ClC-ec1 by known CLC channel inhibitors (lead panel)", "setting": "ClC-ec1 [2]", "value": "None of these compounds inhibited ClC-ec1"}]}, {"smiles": "O=C(O)c1c2ccccc2cc2ccccc12", "note": "[9-anthracene carboxylate]", "values": [{"measurement": "inhibition of ClC-ec1 by known CLC channel inhibitors (lead panel)", "setting": "ClC-ec1 [2]", "value": "None of these compounds inhibited ClC-ec1"}]}, {"smiles": "O=S(=O)(O)c1cc(N=C=S)ccc1C=Cc1ccc(N=C=S)cc1S(=O)(=O)O", "note": "[DIDS, 4,4′-diisothiocyano-2,2′-stilbenedisulfonic acid, reference compound]", "values": [{"measurement": "effect of DIDS added after OADS to the same chamber", "setting": "ClC-ec1 [3]", "value": "has no effect"}, {"measurement": "effect of DIDS applied to the opposite chamber from OADS", "setting": "ClC-ec1 [3]", "value": "significant additional inhibition"}]}, {"smiles": "O=C(O)c1ccccc1Nc1cccc(C(F)(F)F)c1", "note": "[flufenamic acid]", "values": [{"measurement": "inhibition of ClC-ec1 by known CLC channel inhibitors (lead panel)", "setting": "ClC-ec1 [2]", "value": "None of these compounds inhibited ClC-ec1"}]}]}
